Key:
TNF-α = assay: LPS-stimulated whole bovine blood assay, MSD cytokine detection; type: cell-based; conditions: Bos taurus, LPS-stimulated bovine whole blood; read-out: TNF-α (IC50 μM)
P. multocida 46572 = assay: In vivo mouse lung infection challenge model (murine efficacy); parameters: species or system CD-1 female mice; conditions: 20 mg/kg subcutaneous, P. multocida challenge; harmonized against the comparative vehicle survival rate
Description: The challenge organism was P. multocida 46572. Target challenge concentration was 5×10^2 CFU/mouse. Isolated colonies from overnight growth (37° C. with 5% CO2) on trypticase soy agar (TSA II) blood plates were transferred to room temperature Brain Heart Infusion Broth (BHIB). The broth culture was incubated 3.5-4 hours to approximately mid-log phase of growth, as measured by forward light scatter at 600 nm (OD600, 0.200). The culture was centrifuged to collect the bacterial pellet. The pellet was re-suspended in BHIB and adjusted to provide an approximate concentration of 2.7 log^10 colony forming units (CFU) in 0.04 mL at the highest concentration. The challenge inoculum concentration was confirmed by serial dilutions of the inoculum for CFU enumeration. On Day −5, CD-1 female mice were received. Mice were given standard rodent diet and water ad libitum. On Day 0, bacterial inoculum (0.04 mL) was administered to each mouse (n=36) intranasally. Compounds of the invention were dosed at 20 mg/kg (0.1 mL) in a buffered (˜pH 5.4) propylene glycol, monothioglycerol and water solution by subcutaneous injection. Animals were observed from Days 1-10. The study was terminated on Day 10. In addition, some treatment groups were sampled at 6, 24, and 48 hours post bacterial challenge for RNA sequence analysis of lung tissue.
The murine efficacy model (P. multocida challenge) was optimized, and the treatment group size was powered to be able to observe statistically significant improvement of survival to expected ranges for immunomodulatory compounds. The experimental design was a randomized complete block design. Mice were individually identified and treatment groups comingled within a cage, with every treatment group equally represented across cages. Mortality was the primary variable. Mortality data was analyzed using a generalized mixed model with fixed effect of treatment and random effect of block. Survival time was also analyzed using the SAS PHREG (survival analysis) procedure to examine whether there were significant differences between treatment groups and the control group. Numerous compounds of the invention and M9 (positive control) were tested in this model at a dose of 20 mg/kg. Typical percent survival for no treatment control is in the range of 0-20% based on study to study variation in challenge inoculum and rate of infection. […] Mouse survival for M9 was about 90-100%, further supporting its antibacterial properties against the bacterial strain (Table 3). Survival values presented are harmonized against the comparative vehicle survival rate.

IL-1β = assay: LPS-stimulated whole bovine blood assay, MSD cytokine detection; type: cell-based; conditions: overstimulation of IL-1β, LPS-stimulated bovine whole blood
[1] = system: BRD pathogens, M. haemolytica and P. multocida; assay: MIC screening panel of BRD pathogens (antibacterial / non-antibacterial); conditions: read-out: antibacterial / non-antibacterial (MIC for the BRD pathogens)

| Structure (SMILES) | IC50 (TNF-α) [µM] | Mouse Murine Percent Survival (P. multocida 46572) [%] | IL-1β OS of LPS (IL-1β) [µM] | MIC [1] [µg/mL] |
| --- | --- | --- | --- | --- |
| CCCNC[C@]1(O)[C@H](C)O[C@@H](O[C@H]2[C@H](C)[C@@H](O[C@@H]3O[C@H](C)C[C@H](N(C)C(=O)Nc4ccc(OC)cc4)[C@H]3O)[C@](C)(O)C[C@@H](C)CN[C@H](C)[C@@H](O)[C@](C)(O)[C@@H](CC)OC(=O)[C@@H]2C)C[C@@]1(C)OC [Example H-87, 1-((2S,3R,4S,6R)-2-(((2R,3S,4R,5R,8R,10R,11R,12S,13S,14R)-2-ethyl-3,4,10-trihydroxy-13-(((2R,4R,5S,6S)-5-hydroxy-4-methoxy-4,6-dimethyl-5-((propylamino)methyl)tetrahydro-2H-pyran-2-yl)oxy)-3,5,8,10,12,14-hexamethyl-15-oxo-1-oxa-6-azacyclopentadecan-11-yl)oxy)-3-hydroxy-6-methyltetrahydro-2H-pyran-4-yl)-3-(4-methoxyphenyl)-1-methylurea] | 100 | 14 | 500 | – |
| CCCNC[C@]1(O)[C@H](C)O[C@@H](O[C@H]2[C@H](C)[C@@H](O[C@@H]3O[C@H](C)C[C@H](N(C)C(=O)Nc4ccncc4)[C@H]3O)[C@](C)(O)C[C@@H](C)CN[C@H](C)[C@@H](O)[C@](C)(O)[C@@H](CC)OC(=O)[C@@H]2C)C[C@@]1(C)OC [Example H-73, 1-((2S,3R,4S,6R)-2-(((2R,3S,4R,5R,8R,10R,11R,12S,13S,14R)-2-ethyl-3,4,10-trihydroxy-13-(((2R,4R,5S,6S)-5-hydroxy-4-methoxy-4,6-dimethyl-5-((propylamino)methyl)tetrahydro-2H-pyran-2-yl)oxy)-3,5,8,10,12,14-hexamethyl-15-oxo-1-oxa-6-azacyclopentadecan-11-yl)oxy)-3-hydroxy-6-methyltetrahydro-2H-pyran-4-yl)-1-methyl-3-(pyridin-4-yl)urea] | > 500 | 4 | >500 | – |
| CC[C@H]1OC(=O)[C@H](C)[C@@H](O[C@H]2C[C@@](C)(OC)[C@](C)(O)[C@H](C)O2)[C@H](C)[C@@H](O[C@@H]2O[C@H](C)C[C@H](N(C)C(=O)N(C)c3ccc(C(F)(F)F)cc3)[C@H]2O)[C@](C)(O)C[C@@H](C)CN[C@H](C)[C@@H](O)[C@]1(C)O [Example B-13a, 1-((2S,3R,4S,6R)-2-(((2R,3S,4R,5R,8R,10R,11R,12S,13S,14R)-2-ethyl-3,4,10-trihydroxy-13-(((2R,4R,5R,6S)-5-hydroxy-4-methoxy-4,5,6-trimethyltetrahydro-2H-pyran-2-yl)oxy)-3,5,8,10,12,14-hexamethyl-15-oxo-1-oxa-6-azacyclopentadecan-11-yl)oxy)-3-hydroxy-6-methyltetrahydro-2H-pyran-4-yl)-1,3-dimethyl-3-(4-(trifluoromethyl)phenyl)urea] | 20 | 44 | 16 | – |
| CCCNC[C@]1(O)[C@H](C)O[C@@H](O[C@H]2[C@H](C)[C@@H](O[C@@H]3O[C@H](C)C[C@H](N(C)C(N)=O)[C@H]3O)[C@](C)(O)C[C@@H](C)CN[C@H](C)[C@@H](O)[C@](C)(O)[C@@H](CC)OC(=O)[C@@H]2C)C[C@@]1(C)OC [Example H-96, 1-((2S,3R,4S,6R)-2-(((2R,3S,4R,5R,8R,10R,11R,12S,13S,14R)-2-ethyl-3,4,10-trihydroxy-13-(((2R,4R,5S,6S)-5-hydroxy-4-methoxy-4,6-dimethyl-5-((propylamino)methyl)tetrahydro-2H-pyran-2-yl)oxy)-3,5,8,10,12,14-hexamethyl-15-oxo-1-oxa-6-azacyclopentadecan-11-yl)oxy)-3-hydroxy-6-methyltetrahydro-2H-pyran-4-yl)-1-methylurea] | – | 11 | – | > 64 |
| CC[C@H]1OC(=O)[C@H](C)[C@@H](O[C@H]2C[C@@](C)(OC)[C@](O)(CNCCN(C)C)[C@H](C)O2)[C@H](C)[C@@H](O[C@@H]2O[C@H](C)C[C@H](N(C)C(=O)Nc3ccccc3)[C@H]2O)[C@](C)(O)C[C@@H](C)CN[C@H](C)[C@@H](O)[C@]1(C)O [Example H-3, 1-((2S,3R,4S,6R)-2-(((2R,3S,4R,5R,8R,10R,11R,12S,13S,14R)-13-(((2R,4R,5S,6S)-5-(((2-(dimethylamino)ethyl)amino)methyl)-5-hydroxy-4-methoxy-4,6-dimethyltetrahydro-2H-pyran-2-yl)oxy)-2-ethyl-3,4,10-trihydroxy-3,5,8,10,12,14-hexamethyl-15-oxo-1-oxa-6-azacyclopentadecan-11-yl)oxy)-3-hydroxy-6-methyltetrahydro-2H-pyran-4-yl)-1-methyl-3-phenylurea] | 400 | 8 | >500 | – |
| CC[C@H]1OC(=O)[C@H](C)[C@@H](O[C@H]2C[C@@](C)(OC)[C@@H](O)[C@H](C)O2)[C@H](C)[C@@H](O[C@@H]2O[C@H](C)C[C@H](N(C)C(=O)Nc3ccccc3)[C@H]2O)[C@](C)(O)C[C@@H](C)CN(C)[C@H](C)[C@@H](O)[C@]1(C)O [Example B-4, 1-((2S,3R,4S,6R)-2-(((2R,3S,4R,5R,8R,10R,11R,12S,13S,14R)-2-ethyl-3,4,10-trihydroxy-13-(((2R,4R,5S,6S)-5-hydroxy-4-methoxy-4,6-dimethyltetrahydro-2H-pyran-2-yl)oxy)-3,5,6,8,10,12,14-heptamethyl-15-oxo-1-oxa-6-azacyclopentadecan-11-yl)oxy)-3-hydroxy-6-methyltetrahydro-2H-pyran-4-yl)-1-methyl-3-phenylurea] | 45 | 7 | 80 | – |
| CCCNC[C@]1(O)[C@H](C)O[C@@H](O[C@H]2[C@H](C)[C@@H](O[C@@H]3O[C@H](C)C[C@H](N(C)C(=O)N(c4ccccc4)C4CC4)[C@H]3O)[C@](C)(O)C[C@@H](C)CN[C@H](C)[C@@H](O)[C@](C)(O)[C@@H](CC)OC(=O)[C@@H]2C)C[C@@]1(C)OC [Example H-14, 1-cyclopropyl-3-((2S,3R,4S,6R)-2-(((2R,3S,4R,5R,8R,10R,11R,12S,13S,14R)-2-ethyl-3,4,10-trihydroxy-13-(((2R,4R,5S,6S)-5-hydroxy-4-methoxy-4,6-dimethyl-5-((propylamino)methyl)tetrahydro-2H-pyran-2-yl)oxy)-3,5,8,10,12,14-hexamethyl-15-oxo-1-oxa-6-azacyclopentadecan-11-yl)oxy)-3-hydroxy-6-methyltetrahydro-2H-pyran-4-yl)-3-methyl-1-phenylurea] | – | 46 | – | > 64 |
| CCCNC(=O)N(C)[C@H]1C[C@@H](C)O[C@@H](O[C@@H]2[C@@H](C)[C@H](O[C@H]3C[C@@](C)(OC)[C@](O)(CNc4ccc(C(F)(F)F)cc4)[C@H](C)O3)[C@@H](C)C(=O)O[C@H](CC)[C@@](C)(O)[C@H](O)[C@@H](C)NC[C@H](C)C[C@@]2(C)O)[C@@H]1O [Example H-95, 1-((2S,3R,4S,6R)-2-(((2R,3S,4R,5R,8R,10R,11R,12S,13S,14R)-2-ethyl-3,4,10-trihydroxy-13-(((2R,4R,5S,6S)-5-hydroxy-4-methoxy-4,6-dimethyl-5-(((4-(trifluoromethyl)phenyl)amino)methyl)tetrahydro-2H-pyran-2-yl)oxy)-3,5,8,10,12,14-hexamethyl-15-oxo-1-oxa-6-azacyclopentadecan-11-yl)oxy)-3-hydroxy-6-methyltetrahydro-2H-pyran-4-yl)-1-methyl-3-propylurea] | 10 | 39 | 13 | > 64 |
| CC[C@H]1OC(=O)[C@H](C)[C@@H](O[C@H]2C[C@@](C)(OC)[C@@H](O)[C@H](C)O2)[C@H](C)[C@@H](O[C@@H]2O[C@H](C)C[C@H](N(C)C(=O)N(C)c3ccccc3)[C@H]2O)[C@](C)(O)C[C@@H](C)CN(C)[C@H](C)[C@@H](O)[C@]1(C)O [Example B-5, 1-((2S,3R,4S,6R)-2-(((2R,3S,4R,5R,8R,10R,11R,12S,13S,14R)-2-ethyl-3,4,10-trihydroxy-13-(((2R,4R,5S,6S)-5-hydroxy-4-methoxy-4,6-dimethyltetrahydro-2H-pyran-2-yl)oxy)-3,5,6,8,10,12,14-heptamethyl-15-oxo-1-oxa-6-azacyclopentadecan-11-yl)oxy)-3-hydroxy-6-methyltetrahydro-2H-pyran-4-yl)-1,3-dimethyl-3-phenylurea] | – | <1 | – | – |

— US12295936B2, “Immunomodulating urea azalides” (Zoetis Services LLC, priority 2020, dated 2025)
